{
  "source": "patent US20110224231A1",
  "about": "“Novel Lactams as Beta Secretase Inhibitors” (Pfizer Inc., priority 2008, published 2011)",
  "note": "Structures can show the parent of a compound that is named as a salt.",
  "data": [
    {"molecular_target": "T1, soluble human BACE (Homo sapiens, UniProt P56817)", "T1 construct": "cells secreting human recombinant soluble BACE; made in house; conditioned medium", "T1 sequence (P56817 46-457 limits assumed)": "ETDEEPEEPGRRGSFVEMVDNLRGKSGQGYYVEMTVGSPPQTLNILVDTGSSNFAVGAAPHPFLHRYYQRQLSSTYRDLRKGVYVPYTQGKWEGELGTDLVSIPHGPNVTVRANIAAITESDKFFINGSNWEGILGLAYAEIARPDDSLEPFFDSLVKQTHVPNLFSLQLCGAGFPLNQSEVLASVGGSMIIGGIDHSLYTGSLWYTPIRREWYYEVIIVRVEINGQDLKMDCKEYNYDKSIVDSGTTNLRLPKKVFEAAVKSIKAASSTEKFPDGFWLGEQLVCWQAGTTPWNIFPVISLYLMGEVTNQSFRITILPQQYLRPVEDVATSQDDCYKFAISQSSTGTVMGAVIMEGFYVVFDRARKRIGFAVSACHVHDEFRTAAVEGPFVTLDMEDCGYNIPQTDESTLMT", "assay": "BACE activity Cell Free Assay (ELISA of cleaved synthetic APP substrate)", "type": "biochemical", "settings": "not given", "units": {"IC50": "µM"}, "values": [
      {"compound": "Cc1ccsc1-c1cc(CN2CC[C@]3(C=CC(=O)N3c3cccc(F)c3)C[C@@H]2C)ccc1O", "note": "[#212]", "IC50": "0.001 to 1"},
      {"compound": "CC1CC2(C=CC(=O)N2c2cccc(F)c2)CCN1Cc1ccc(O)c(Cl)c1", "note": "(racemic) [Example 15, Racemic (5R,7S),(5S,7R)-8-(3-chloro-4-hydroxybenzyl)-1-(3-fluorophenyl)-7-methyl-1,8-diazaspiro[4.5]dec-3-en-2-one]", "IC50": "1 to 10"},
      {"compound": "CC1CC2(CCC(=O)N2c2cccc(F)c2)CCN1Cc1c[nH]c2cc(F)ccc12", "note": "(racemic) [Example 74, Racemic (5R,7S),(5S,7R)-8-[(6-fluoro-1H-indol-3-yl)methyl]-1-(3-fluorophenyl)-7-methyl-1,8-diazaspiro[4.5]decan-2-one]", "IC50": "100 to 300"},
      {"compound": "CC1CC2(C=CC(=O)N2c2cccc(F)c2)CCN1Cc1cccc(-c2cncc(C#N)c2)c1", "note": "(racemic) [Example 25, Racemic 5-(3-{[(5R,7S),(5S,7R)-1-(3-fluorophenyl)-7-methyl-2-oxo-1,8-diazaspiro[4.5]dec-3-en-8-yl]methyl}phenyl)nicotinonitrile]", "IC50": "10 to 100"},
      {"compound": "CC1CC2(C=CC(=O)N2c2cccc(F)c2)CCN1Cc1c[nH]c2cc(C(F)(F)F)ccc12", "note": "(racemic) [Example 67, Racemic (5R,7S),(5S,7R)-1-(3-fluorophenyl)-7-methyl-8-{[6-(trifluoromethyl)-1H-indol-3-yl]methyl}-1,8-diazaspiro [4.5]dec-3-en-2-one]", "IC50": "10 to 100"},
      {"compound": "CC(C)NS(=O)(=O)c1cccc(CN2CCC3(C=CC(=O)N3c3cccc(F)c3)CC2C)c1", "note": "(racemic) [Example 28, Racemic 3-{[(5R,7S),(5S,7R)-1-(3-fluorophenyl)-7-methyl-2-oxo-1,8-diazaspiro[4.5]dec-3-en-8-yl]methyl}-N-isopropylbenzenesulfonamide]", "IC50": "10 to 100"},
      {"compound": "CC1CC2(C=CC(=O)N2c2cccc(F)c2)CCN1Cc1c[nH]c2cc(F)ccc12", "note": "(racemic) [Example 63, Racemic (5R,7S),(5S,7R)-8-[(6-fluoro-1H-indol-3-yl)methyl]-1-(3-fluorophenyl)-7-methyl-1,8-diazaspiro[4.5]dec-3-en-2-one]", "IC50": "10 to 100"},
      {"compound": "CC(C)Oc1cccc(CN2CC[C@]3(C=CC(=O)N3c3ccn(C)n3)C[C@@H]2C)c1", "note": "[#122]", "IC50": "10 to 100"},
      {"compound": "CCCn1nccc1CN1CC[C@]2(C=CC(=O)N2c2cnccn2)C[C@@H]1C", "note": "[#133, (5R,7S)-7-methyl-8-[(1-propyl-1H-pyrazol-5-yl)methyl]-1-pyrazin-2-yl-1,8-diazaspiro[4.5]dec-3-en-2-one]", "IC50": "100 to 300"},
      {"compound": "Cc1ccnc(N2C(=O)C=C[C@]23CCN(Cc2cccc(OC(C)C)c2)[C@@H](C)C3)c1", "note": "[#108]", "IC50": "1 to 10"},
      {"compound": "CCCn1nccc1CN1CCC2(C=CC(=O)N2c2cccc(F)c2)CC1C", "note": "(racemic) [Example 10, Racemic (5R,7S),(5S,7R)-1-(3-fluorophenyl)-7-methyl-8-[(1-propyl-1H-pyrazol-5-yl)methyl]-1,8-diazaspiro[4.5]dec-3-en-2-one]", "IC50": "10 to 100"},
      {"compound": "CC1CC2(C=CC(=O)N2c2cccc(F)c2)CCN1Cc1c[nH]c2ccc(OCc3ccccc3)cc12", "note": "(racemic) [Example 62, Racemic (5R,7S),(5S,7R)-8-{[5-(benzyloxy)-1H-indol-3-yl]methyl}-1-(3-fluorophenyl)-7-methyl-1,8-diazaspiro[4.5]dec-3-en-2-one]", "IC50": "10 to 100"},
      {"compound": "CC[C@@H](C)Oc1cccc(CN2CC[C@]3(C=CC(=O)N3c3cccc(F)c3)C[C@@H]2C)c1", "note": "[#203]", "IC50": "1 to 10"},
      {"compound": "CC(C)Oc1cc(CN2CC[C@]3(C=C(c4ccccc4)C(=O)N3c3cccc(F)c3)C[C@@H]2C)ccc1O", "note": "[Example @97, (5R,7S)-1-(3-Fluorophenyl)-8-(4-hydroxy-3-isopropoxybenzyl)-7-methyl-3-phenyl-1,8-diazaspiro[4.5]dec-3-en-2-one, hydrochloride salt]", "IC50": "1 to 10"},
      {"compound": "Cc1cccc(N2C(=O)C=C[C@]23CCN(Cc2ccc(O)c(Cl)c2)[C@@H](C)C3)n1", "note": "[#141, (5R,7S)-8-(3-chloro-4-hydroxybenzyl)-7-methyl-1-(6-methylpyridin-2-yl)-1,8-diazaspiro[4.5]dec-3-en-2-one, ammonium salt]", "IC50": "1 to 10"},
      {"compound": "CCNc1ccc(CN2CCC3(C=CC(=O)N3c3cccc(F)c3)CC2C)cn1", "note": "(racemic) [Example 31, Racemic (5R,7S),(5S,7R)-8-{[6-(ethylamino)pyridin-3-yl]methyl}-1-(3-fluorophenyl)-7-methyl-1,8-diazaspiro[4.5]dec-3-en-2-one]", "IC50": "100 to 300"},
      {"compound": "Cc1ccncc1-c1cccc(CN2CCC3(C=CC(=O)N3c3cccc(F)c3)CC2C)c1", "note": "(racemic) [Example 21, Racemic (5R,7S),(5S,7R)-1-(3-fluorophenyl)-7-methyl-8-[3-(4-methylpyridin-3-yl)benzyl]-1,8-diazaspiro[4.5]dec-3-en-2-one]", "IC50": "1 to 10"},
      {"compound": "CC(C)C(O)c1cc(CN2CCC3(C=CC(=O)N3c3cccc(F)c3)CC2C)ccc1O", "note": "(stereo not drawn) [#205]", "IC50": "0.001 to 1"},
      {"compound": "CC1CC2(C=CC(=O)N2c2cccc(F)c2)CCN1Cc1cccc(-n2cccn2)c1", "note": "(racemic) [Example 64, Racemic (5R,7S),(5S,7R)-1-(3-fluorophenyl)-7-methyl-8-[3-(1H-pyrazol-1-yl)benzyl]-1,8-diazaspiro[4.5]dec-3-en-2-one]", "IC50": "10 to 100"},
      {"compound": "CC1CC2(C=CC(=O)N2c2cccc(F)c2)CCN1Cc1ccnn1CC(F)(F)F", "note": "(racemic) [Example 60, Racemic (5R,7S),(5S,7R)-1-(3-fluorophenyl)-7-methyl-8-{[1-(2,2,2-trifluoroethyl)-1H-pyrazol-5-yl]methyl}-1,8-diazaspiro[4.5]dec-3-en-2-one]", "IC50": "10 to 100"},
      {"compound": "Cc1ccc2c(CN3CCC4(C=CC(=O)N4c4cccc(F)c4)CC3C)c[nH]c2c1", "note": "(racemic) [Example 66, Racemic (5R,7S),(5S,7R)-1-(3-fluorophenyl)-7-methyl-8-[(6-methyl-1H-indol-3-yl)methyl]-1,8-diazaspiro[4.5]dec-3-en-2-one]", "IC50": "10 to 100"},
      {"compound": "Cc1cccc(N2C(=O)C=C[C@]23CCN(Cc2cccc(OC(C)C)c2)[C@@H](C)C3)n1", "note": "[#107]", "IC50": "1 to 10"},
      {"compound": "CC(C)Oc1cccc(CN2CC[C@]3(C=CC(=O)N3c3cncc(Cl)c3)C[C@@H]2C)c1", "note": "[#117]", "IC50": "1 to 10"},
      {"compound": "CC1CC2(C=CC(=O)N2c2cccc(F)c2)CCN1Cc1ccc2[nH]ccc2c1", "note": "(racemic) [Example 11, Racemic (5R,7S),(5S,7R)-1-(3-fluorophenyl)-8-(1H-indol-5-ylmethyl)-7-methyl-1,8-diazaspiro[4.5]dec-3-en-2-one]", "IC50": "10 to 100"},
      {"compound": "CC1CC2(CCC(=O)N2c2cccc(F)c2)CCN1Cc1c[nH]c2cc(C(F)(F)F)ccc12", "note": "(racemic) [Example 84, Racemic (5R,7S),(5S.7R)-1-(3-fluorophenyl)-7-methyl-8-{[6-(trifluoromethyl)-1H-indol-3-yl]methyl}-1,8-diazaspiro[4.5]decan-2-one]", "IC50": "100 to 300"},
      {"compound": "CCCCOc1cccc(CN2CCC3(CCC(=O)N3c3cccc(F)c3)CC2C)c1", "note": "(racemic) [Example 47, Racemic (5R,7S),(5S,7R)-8-(3-butoxybenzyl)-1-(3-fluorophenyl)-7-methyl-1,8-diazaspiro[4.5]decan-2-one]", "IC50": "100 to 300"},
      {"compound": "CCCNc1ccc(CN2CCC3(C=CC(=O)N3c3cccc(F)c3)CC2C)cn1", "note": "(racemic) [Example 32, Racemic (5R,7S),(5S,7R)-1-(3-fluorophenyl)-7-methyl-8-{[6-(propylamino)pyridin-3-yl]methyl}-1,8-diazaspiro[4.5]dec-3-en-2-one]", "IC50": "100 to 300"},
      {"compound": "CC1CC2(C=CC(=O)N2c2cccc(F)c2)CCN1Cc1cccc(-c2ccccn2)c1", "note": "(racemic) [Example 19, Racemic (5R,7S),(5S,7R)-1-(3-fluorophenyl)-7-methyl-8-(3-pyridin-2-ylbenzyl)-1,8-diazaspiro[4.5]dec-3-en-2-one]", "IC50": "10 to 100"},
      {"compound": "CCCOc1cccc(CN2CCC3(C=CC(=O)N3c3cccc(F)c3)CC2C)c1", "note": "(racemic) [Example 17, Racemic (5R,7S),(5S,7R)-1-(3-fluorophenyl)-7-methyl-8-(3-propoxybenzyl)-1,8-diazaspiro[4.5]dec-3-en-2-one]", "IC50": "10 to 100"},
      {"compound": "Cc1cccnc1N1C(=O)C=C[C@]12CCN(Cc1cccc(OC(C)C)c1)[C@@H](C)C2", "note": "[#115]", "IC50": "10 to 100"},
      {"compound": "C[C@H]1C[C@@]2(C=CC(=O)N2c2cccc(F)c2)CCN1Cc1scnc1CC1CCC1", "note": "[#211]", "IC50": "0.001 to 1"},
      {"compound": "CC1CC2(CCC(=O)N2c2cccc(F)c2)CCN1Cc1cccc(Oc2ccc(Cl)cc2)c1", "note": "(racemic) [Example 55, Racemic (5R,7S),(5S,7R)-8-[3-(4-chlorophenoxy)benzyl]-1-(3-fluorophenyl)-7-methyl-1,8-diazaspiro[4.5]decan-2-one]", "IC50": "10 to 100"},
      {"compound": "CC1CC2(C=CC(=O)N2c2cccc(F)c2)CCN1Cc1ccc(O)cc1O", "note": "(racemic) [Example 9, Racemic (5R,7S),(5S,7R)-8-(2,4-dihydroxybenzyl)-1-(3-fluorophenyl)-7-methyl-1,8-diazaspiro[4.5]dec-3-en-2-one]", "IC50": "100 to 300"},
      {"compound": "CC1CC2(CCC(=O)N2c2cccc(F)c2)CCN1Cc1cc(Br)ccc1F", "note": "(racemic) [Example 53, Racemic (5R,7S),(5S,7R)-8-(5-bromo-2-fluorobenzyl)-1-(3-fluorophenyl)-7-methyl-1,8-diazaspiro[4.5]decan-2-one]", "IC50": "100 to 300"},
      {"compound": "CC1CC2(CCC(=O)N2c2cccc(F)c2)CCN1Cc1cccc(-n2cccn2)c1", "note": "(racemic) [Example 79, Racemic (5R,7S),(5S,7R)-1-(3-fluorophenyl)-7-methyl-8-[3-(1H-pyrazol-1-yl)benzyl]-1,8-diazaspiro[4.5]decan-2-one]", "IC50": "100 to 300"},
      {"compound": "C[C@H]1C[C@@]2(C=CC(=O)N2c2cccc(F)c2)CCN1Cc1ccc(O)c(-c2ccccc2Cl)c1", "note": "[#206]", "IC50": "0.001 to 1"},
      {"compound": "CC(C)Oc1cccc(CN2CC[C@]3(CC(F)C(=O)N3c3cccc(F)c3)C[C@@H]2C)c1", "note": "(mixture of isomers) [Example 90, Racemic (5R,7S)(5S,7R)-3-fluoro-1-(3-fluorophenyl)-8-(3-isopropoxybenzyl)-7˜methyl˜1,8˜diazaspiro[4.5]decan˜2˜one, formate salt]", "IC50": "10 to 100"},
      {"compound": "C[C@H]1C[C@@]2(C=CC(=O)N2c2cccc(F)c2)CCN1Cc1ccc(O)c(-c2ccccc2F)c1", "note": "[#208]", "IC50": "0.001 to 1"}
    ]},
    {"molecular_target": "T1, soluble human BACE", "assay": "BACE activity Cell Free Assay (ELISA of cleaved synthetic APP substrate)", "type": "biochemical", "settings": "Table 4; cell free, soluble human BACE, pH 4.5, 3 μM substrate; read-out: BACE Activity (Cell Free Assay IC50)", "units": {"IC50": "µM"}, "values": [
      {"compound": "Cc1cncc(N2C(=O)C=C[C@]23CCN(Cc2cccc(OC(C)C)c2)[C@@H](C)C3)n1", "note": "[#126]", "IC50": "10 to 100"}
    ]}
  ]
}
